Measured values published in PubChem BioAssay (NCI).
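Growth conditions: 96-well plates. Treatment: test compound, 48 hours, 5 concentrations. Analysis: linear interpolation between bracketing concentrations; unreached endpoints set to highest concentration. The concentration for full growth arrest is given as TGI.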

What was measured:
Assay in all cases: NCI-60 cell line screen, 48 h
HOP-62 NSCLC = system: HOP-62 NSCLC
HCT-15 colon = system: HCT-15 colon
OVCAR-3 ovarian = system: OVCAR-3 ovarian
RPMI-8226 leukemia = system: RPMI-8226 leukemia
M14 melanoma = system: M14 melanoma
OVCAR-5 ovarian = system: OVCAR-5 ovarian
ACHN renal = system: ACHN renal
MALME-3M melanoma = system: MALME-3M melanoma
MCF7 breast = system: MCF7 breast
MDA-MB-435 = system: MDA-MB-435
NCI/ADR-RES ovarian = system: NCI/ADR-RES ovarian
OVCAR-4 ovarian = system: OVCAR-4 ovarian
SK-OV-3 ovarian = system: SK-OV-3 ovarian
NCI-H522 lung = system: NCI-H522 lung
A549 NSCLC = system: A549 NSCLC
PC-3 prostate = system: PC-3 prostate
T-47D breast = system: T-47D breast
NCI-H23 lung = system: NCI-H23 lung
UACC-257 melanoma = system: UACC-257 melanoma
A498 renal = system: A498 renal

Measured: TGI

CNC(=O)C1CCCN1C(=O)C(Cc1cnc[nH]1)NC(=O)C1CCC(=O)N1 (centres undefined)
not listed: UACC-257 melanoma | A498 renal
> 100 µM: all other assays above

COc1cc([C@@H]2c3cc4c(cc3[C@@H](OC3OC5COC(C)OC5C(OC(=O)CN5CCN(C)CC5)C3OC(=O)CN3CCN(C)CC3)C3COC(=O)[C@@H]32)OCO4)cc(OC)c1OC(=O)CN1CCN(C)CC1 (some centres undefined)
not listed: RPMI-8226 leukemia | A549 NSCLC | A498 renal
> 100 µM: all other assays above

CC(C)[Si](OC1=C(c2ccccc2)C(NC(=O)/C=C/c2ccc([N+](=O)[O-])cc2)CCC1)(C(C)C)C(C)C (centres undefined)
not listed: ACHN renal | OVCAR-4 ovarian
> 100 µM: all other assays above

NC(=O)CCC(CCC(N)=O)(CCC(N)=O)[N+](=O)[O-]
not listed: HOP-62 NSCLC | OVCAR-3 ovarian | OVCAR-4 ovarian | A498 renal
> 100 µM: all other assays above

CC1=CC(=O)[C@@H](O)[C@]2(C)[C@H]3[C@@]4(O)OC[C@@]35[C@@H](C[C@@H]12)OC(=O)C(OC(=O)CC1=CCCC1)[C@H]5[C@@H](C)[C@H]4O (some centres undefined)
0.733 µM: PC-3 prostate
8.99 µM: A549 NSCLC
0.656 µM: MCF7 breast
0.443 µM: MDA-MB-435
0.217 µM: UACC-257 melanoma
0.35 µM: ACHN renal
1.21 µM: NCI/ADR-RES ovarian
5.04 µM: SK-OV-3 ovarian
0.152 µM: NCI-H23 lung
0.039 µM: RPMI-8226 leukemia
0.687 µM: OVCAR-5 ovarian
0.108 µM: HOP-62 NSCLC
0.0666 µM: MALME-3M melanoma
> 23.2 µM: T-47D breast
0.103 µM: M14 melanoma
0.284 µM: OVCAR-4 ovarian
0.0733 µM: NCI-H522 lung

CCOC(=O)c1c[nH]cc1-c1cn(S(=O)(=O)c2ccccc2)cc1C
56.3 µM: PC-3 prostate
44.3 µM: M14 melanoma
61 µM: MCF7 breast
76.4 µM: HCT-15 colon
61.8 µM: OVCAR-3 ovarian
46.4 µM: NCI-H522 lung
> 10 µM: A498 renal | MDA-MB-435
37.6 µM: UACC-257 melanoma
69.8 µM: NCI-H23 lung
64.3 µM: ACHN renal
40.4 µM: MALME-3M melanoma
not listed: RPMI-8226 leukemia
> 100 µM: all other assays above

OCCCc1cc(O)c2c(c1)C(CO)C(c1ccc(O)c(O)c1)O2 (centres undefined)
not listed: RPMI-8226 leukemia | OVCAR-4 ovarian
> 100 µM: all other assays above

COC(=O)Cc1c(/C=C/C(C)(C)n2cnc(CCN3C(=O)CCC3=O)c2)[nH]c2ccccc12
97.8 µM: MALME-3M melanoma
60.1 µM: T-47D breast
not listed: HOP-62 NSCLC | RPMI-8226 leukemia
> 100 µM: all other assays above

Cc1cn([C@H]2C[C@@H]3[C@@H](COC(CCl)N3O)O2)c(=O)[nH]c1=O (some centres undefined)
not listed: ACHN renal | NCI-H23 lung
> 100 µM: all other assays above

CCC(CCN)(CCN)[N+](=O)[O-]
not listed: HOP-62 NSCLC | OVCAR-3 ovarian | ACHN renal | OVCAR-4 ovarian | NCI-H23 lung | A498 renal
> 100 µM: all other assays above

C/C(=N\Nc1nc2ccccc2s1)c1cnccn1
18.2 µM: HCT-15 colon
12.3 µM: M14 melanoma | NCI-H23 lung
> 54.8 µM: HOP-62 NSCLC
> 65.5 µM: A549 NSCLC
> 77.7 µM: OVCAR-5 ovarian
43.7 µM: MALME-3M melanoma
17.4 µM: OVCAR-3 ovarian
> 27.7 µM: SK-OV-3 ovarian
> 47.8 µM: RPMI-8226 leukemia
4.88 µM: NCI/ADR-RES ovarian
20.2 µM: MCF7 breast
2.92 µM: NCI-H522 lung
> 67.4 µM: PC-3 prostate
21.1 µM: ACHN renal
not listed: A498 renal
> 100 µM: all other assays above

COc1ccc2c(c1)CCN1CCCc3ccc(OC)cc3C21 (centres undefined)
not listed: MALME-3M melanoma
> 100 µM: all other assays above

C=C(C)[C@H]1C[C@@H]2O[C@@](O)(/C(C)=C\C(=O)/C=C(/C)C[C@H]3OC(=O)[C@@]24O[C@H]34)[C@@H]1O
not listed: HOP-62 NSCLC | NCI-H23 lung
> 100 µM: all other assays above

Nc1ncnc2c1ncn2C1C=CC(COS(N)(=O)=O)C1 (centres undefined)
82.1 µM: NCI-H23 lung
not listed: NCI-H522 lung | A498 renal
> 100 µM: all other assays above

CS/C(=N\S(=O)(=O)c1cc(C)c(Cl)cc1Cl)NNc1cnc2ccccc2n1
not listed: RPMI-8226 leukemia
> 100 µM: all other assays above

CCCNC(=O)Cn1c(C)cc2ccccc21
not listed: A498 renal
> 100 µM: all other assays above

Cc1cc(O)c(C=NC(=S)c2ccccc2)c(=O)o1
not listed: RPMI-8226 leukemia | MALME-3M melanoma | NCI-H522 lung | A498 renal
> 100 µM: all other assays above

CCOC(=O)c1c(-c2ccccc2)nc2c(OC)nccn12
not listed: OVCAR-5 ovarian | ACHN renal | A498 renal
> 100 µM: all other assays above

CC(=O)C1=C(C)N2C(=NC3=C(CCc4ccccc43)C2c2cccc(Br)c2)S1 (centres undefined)
53.5 µM: RPMI-8226 leukemia
not listed: MALME-3M melanoma | NCI-H522 lung
> 100 µM: all other assays above

C[C@]12CC[C@H]3[C@@H](CCC4=CC(=O)CC[C@@]43C)[C@@H]1CC[C@@H]2C(=O)Nc1ccc([N+](=O)[O-])c(C(F)(F)F)c1
> 100 µM: RPMI-8226 leukemia
37.8 µM: T-47D breast
37.2 µM: NCI-H522 lung
38.5 µM: NCI/ADR-RES ovarian
30.5 µM: MCF7 breast
25.7 µM: HCT-15 colon
32.3 µM: MDA-MB-435
31.2 µM: MALME-3M melanoma
> 10 µM: OVCAR-5 ovarian | UACC-257 melanoma | NCI-H23 lung
38.9 µM: ACHN renal
67.1 µM: HOP-62 NSCLC
37.1 µM: A549 NSCLC
40 µM: PC-3 prostate
34.9 µM: OVCAR-4 ovarian
25.4 µM: SK-OV-3 ovarian
60 µM: OVCAR-3 ovarian
33.6 µM: A498 renal

Clc1ccc(C2=C(c3ccccc3)C(c3ccc(Cl)cc3)N3C(=N[C@H]4CCCC[C@@H]43)N2)cc1 (some centres undefined)
21.2 µM: MCF7 breast
28 µM: NCI-H23 lung
24.4 µM: A549 NSCLC
27.6 µM: MDA-MB-435
30.8 µM: SK-OV-3 ovarian
21.4 µM: OVCAR-4 ovarian
26.7 µM: OVCAR-3 ovarian
29.8 µM: OVCAR-5 ovarian
32.2 µM: UACC-257 melanoma
34.8 µM: MALME-3M melanoma
18.8 µM: HCT-15 colon
31.1 µM: A498 renal
21.8 µM: PC-3 prostate
31.4 µM: T-47D breast
23.2 µM: ACHN renal
24.8 µM: M14 melanoma
7.56 µM: RPMI-8226 leukemia
28.1 µM: NCI/ADR-RES ovarian

COCCN(CCOC)C(=O)COc1c2cc(C(C)(C)C)cc1Cc1cc(C(C)(C)C)cc(c1OCC(=O)N(CCOC)CCOC)Cc1cc(C(C)(C)C)cc(c1OCC(=O)N(CCOC)CCOC)Cc1cc(C(C)(C)C)cc(c1OCC(=O)N(CCOC)CCOC)Cc1cc(C(C)(C)C)cc(c1OCC(=O)N(CCOC)CCOC)C2
11.3 µM: A549 NSCLC
6.42 µM: MCF7 breast
5.04 µM: HOP-62 NSCLC
10.2 µM: OVCAR-3 ovarian
19.5 µM: T-47D breast
4.19 µM: NCI-H23 lung
12.6 µM: ACHN renal
16.9 µM: MALME-3M melanoma
13 µM: M14 melanoma
6.9 µM: NCI-H522 lung
6.58 µM: UACC-257 melanoma
14.6 µM: SK-OV-3 ovarian
33 µM: NCI/ADR-RES ovarian
9.53 µM: A498 renal
11.8 µM: HCT-15 colon
10.7 µM: MDA-MB-435
18.2 µM: OVCAR-5 ovarian
3.48 µM: PC-3 prostate
17.5 µM: OVCAR-4 ovarian

CN(C)C1(N(C)C)Oc2c(c(=O)n(C)c(=O)n2C)C(c2ccccc2Br)C1(F)F (centres undefined)
not listed: MALME-3M melanoma | NCI-H522 lung
> 100 µM: all other assays above

CCCC(=O)NC(C(=O)OCC)(N1CCOCC1)C(F)(F)F (centres undefined)
not listed: A498 renal
> 100 µM: all other assays above
